Reference: ChEMBL document CHEMBL1122424, “S-carbobenzoxyglutathione: a competitive inhibitor of mammalian glyoxalase II” (J Med Chem, 1983)
Activity calls are given as the source filed them. No cut-off for these calls is given here.

How the values were obtained:
[1] = biological target: Lactoylglutathione lyase (Mus musculus) (UniProt Q9CPU0); assay: […] inhibitory activity against glyoxalase I in mouse liver; no inhibition; format: functional
[2] = system: Lactoylglutathione lyase (Ovis aries); assay: […] inhibitory activity against glyoxalase I in sheep liver; no inhibition
[3] = biological target: Hydroxyacylglutathione hydrolase, mitochondrial (Rattus norvegicus) (UniProt O35952); assay: (§1) […] inhibitory activity against glyoxalase II in rat liver; format: functional; settings: concentration not given here
[4] = biological target: T1, Lactoylglutathione lyase (Rattus norvegicus) (UniProt Q6P7Q4); assay: […] inhibitory activity against glyoxalase I in rat liver; no inhibition; format: functional
T1 sequence (whole entry): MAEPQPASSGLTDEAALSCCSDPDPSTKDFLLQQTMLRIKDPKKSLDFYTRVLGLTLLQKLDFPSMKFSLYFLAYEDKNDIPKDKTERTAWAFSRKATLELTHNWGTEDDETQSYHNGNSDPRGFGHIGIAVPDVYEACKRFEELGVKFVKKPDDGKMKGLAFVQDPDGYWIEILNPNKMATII

[5] = biological target: Hydroxyacylglutathione hydrolase, mitochondrial (Rattus norvegicus, UniProt O35952); assay: as §1
[6] = biological target: T1, Lactoylglutathione lyase (Rattus norvegicus); assay: In vivo inhibitory activity against glyoxalase I in rat liver; format: functional; settings: concentration not given here

Sequence of Lactoylglutathione lyase (Mus musculus) (Q9CPU0 2-184 limits assumed): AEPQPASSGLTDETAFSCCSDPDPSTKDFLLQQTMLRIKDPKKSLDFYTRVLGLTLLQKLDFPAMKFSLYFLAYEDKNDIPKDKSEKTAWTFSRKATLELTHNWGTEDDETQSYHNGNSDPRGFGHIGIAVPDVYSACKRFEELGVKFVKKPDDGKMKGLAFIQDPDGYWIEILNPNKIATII

Activity [1]: inactive | Activity [2]: inactive | inhibition [3]: > 50% | Activity [4]: inactive | Ki [5]: 65 µM | inhibition [6]: < 10%
SMILES: N[C@@H](CCC(=O)N[C@@H](CSC(=O)OCc1ccccc1)C(=O)NCC(=O)O)C(=O)O
